In patent US10219516B2, “Molecules having pesticidal utility, and intermediates, compositions, and processes, related thereto” (priority 2015, dated 2019):

Columns and labels:
Format in all cases: in vivo
[1] = test system: Beet Armyworm (Spodoptera exigua, LAPHEG); assay: Bioassay on Beet Armyworm (BAW), 128-well diet tray assay; details: Beet Armyworm, 128-well diet tray assay, read-out: BAW rating
Outline: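 Diet in each of eight wells received 50 μg/cm^2 of test molecule (90:10 acetone-water, dried), then one to five second-instar larvae were added. Mortality (%) was scored after five to seven days at 25° C. under 14:10 light-dark and averaged across the wells.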

[2] = test system: Cabbage Looper (Trichoplusia ni, TRIPNI); assay: Bioassay on Cabbage Looper (CL), 128-well diet tray assay; details: Trichoplusia ni; Cabbage Looper, 128-well diet tray assay; read-out: CL rating
Outline: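 Percent mortality, averaged across eight replicate wells, was scored after five to seven days at 25° C. under a 14:10 light-dark cycle. Each well held one to five second instar larvae on artificial diet treated at 50 μg/cm^2 with compound from 90:10 acetone-water, allowed to dry before infestation.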

[3] = test system: Yellow Fever Mosquito (Aedes aegypti, AEDSAE); assay: Bioassay on Yellow Fever Mosquito (YFM), 96-well plate larval assay; details: Yellow Fever Mosquito, 96-well plate larval assay
Outline: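 Each well was scored for mortality after 3 days at room temperature under a non-evaporative lid. Test molecules came from DMSO masters (4000 ppm stock) diluted with water/acetone 90:10 and dispensed into six replicate plates, which were then infested with roughly 1-day-old larvae in liver-powder water.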

Compound: COc1c(F)cc([C@H]2[C@H](C(=O)Nc3ccc(Cl)c(C(=O)Nc4ccc(F)cc4F)c3)C2(Cl)Cl)cc1Br (relative stereo) [F543, 5-(trans-3-(3-Bromo-5-fluoro-4-methoxyphenyl)-2,2-dichlorocyclopropane-1-carboxamido)-2-chloro-N-(2,4-difluorophenyl)benzamide]
- pest or weed control at 50 µg/cm2 [1]: 50 to 100%
- pest or weed control at 50 µg/cm2 [2]: 50 to 100%
- YFM rating [3]: A (80-100)

Compound: COc1cc(NC(=O)c2cc(NC(=O)[C@H]3[C@H](c4cc(Cl)cc(Cl)c4)C3(Cl)Cl)ccc2Cl)ccn1 (relative stereo) [F544, 2-Chloro-5-(trans-2,2-dichloro-3-(3,5-dichlorophenyl)cyclopropane-1-carboxamido)-N-(2-methoxypyridin-4-yl)benzamide]
- pest or weed control at 50 µg/cm2 [1]: 50 to 100%
- pest or weed control at 50 µg/cm2 [2]: 50 to 100%
- YFM rating [3]: A (80-100)

Compound: COc1cc(NC(=O)c2cc(NC(=O)[C@H]3[C@H](c4ccc(F)c(Cl)c4)C3(Cl)Cl)ccc2Cl)ccn1 (relative stereo) [F545, 2-Chloro-5-(trans-2,2-dichloro-3-(3-chloro-4-fluorophenyl)cyclopropane-1-carboxamido)-N-(2-methoxypyridin-4-yl)benzamide]
- pest or weed control at 50 µg/cm2 [1]: 50 to 100%
- pest or weed control at 50 µg/cm2 [2]: 50 to 100%
- YFM rating [3]: A (80-100)

Compound: COc1nccc(NC(=O)c2cc(NC(=O)[C@H]3[C@H](c4cc(Cl)cc(Cl)c4)C3(Cl)Cl)ccc2Cl)c1Cl (relative stereo) [F546, 2-Chloro-N-(3-chloro-2-methoxypyridin-4-yl)-5-(trans-2,2-dichloro-3-(3,5-dichlorophenyl)cyclopropane-1-carboxamido)benzamide]
- pest or weed control at 50 µg/cm2 [1]: 50 to 100%
- pest or weed control at 50 µg/cm2 [2]: 50 to 100%
- YFM rating [3]: A (80-100)

Compound: COc1nccc(NC(=O)c2cc(NC(=O)[C@H]3[C@H](c4ccc(F)c(Cl)c4)C3(Cl)Cl)ccc2Cl)c1Cl (relative stereo) [F547, 2-Chloro-N-(3-chloro-2-methoxypyridin-4-yl)-5-(trans-2,2-dichloro-3-(3-chloro-4-fluorophenyl)cyclopropane-1-carboxamido)benzamide]
- pest or weed control at 50 µg/cm2 [1]: 50 to 100%
- pest or weed control at 50 µg/cm2 [2]: 50 to 100%
- YFM rating [3]: A (80-100)

Compound: COc1cc(NC(=O)c2cc(NC(=O)[C@H]3[C@H](c4cc(Cl)cc(Cl)c4)C3(Cl)Cl)ccc2Cl)c(Br)cn1 (relative stereo) [F548, N-(5-Bromo-2-methoxypyridin-4-yl)-2-chloro-5-(trans-2,2-dichloro-3-(3,5-dichlorophenyl)cyclopropane-1-carboxamido)benzamide]
- pest or weed control at 50 µg/cm2 [1]: 50 to 100%
- pest or weed control at 50 µg/cm2 [2]: 50 to 100%
- YFM rating [3]: A (80-100)

Compound: COc1cc(NC(=O)c2cc(NC(=O)[C@H]3[C@H](c4ccc(F)c(Cl)c4)C3(Cl)Cl)ccc2Cl)c(Br)cn1 (relative stereo) [F549, N-(5-Bromo-2-methoxypyridin-4-yl)-2-chloro-5-(trans-2,2-dichloro-3-(3-chloro-4-fluorophenyl)cyclopropane-1-carboxamido)benzamide]
- pest or weed control at 50 µg/cm2 [1]: 50 to 100%
- pest or weed control at 50 µg/cm2 [2]: 50 to 100%
- YFM rating [3]: A (80-100)

Compound: COc1ccc(NC(=O)c2cc(NC(=O)[C@H]3[C@H](c4cc(Cl)cc(Cl)c4)C3(Cl)Cl)ccc2Cl)cn1 (relative stereo) [F550, 2-Chloro-5-(trans-2,2-dichloro-3-(3,5-dichlorophenyl)cyclopropane-1-carboxamido)-N-(6-methoxypyridin-3-yl)benzamide]
- pest or weed control at 50 µg/cm2 [1]: 50 to 100%
- pest or weed control at 50 µg/cm2 [2]: 50 to 100%
- YFM rating [3]: A (80-100)

Compound: COc1ccc(NC(=O)c2cc(NC(=O)[C@H]3[C@H](c4ccc(F)c(Cl)c4)C3(Cl)Cl)ccc2Cl)cn1 (relative stereo) [F551, 2-Chloro-5-(trans-2,2-dichloro-3-(3-chloro-4-fluorophenyl)cyclopropane-1-carboxamido)-N-(6-methoxypyridin-3-yl)benzamide]
- pest or weed control at 50 µg/cm2 [1]: 50 to 100%
- pest or weed control at 50 µg/cm2 [2]: 50 to 100%
- YFM rating [3]: A (80-100)

Compound: COc1ccc(NC(=O)c2cc(NC(=O)[C@H]3[C@H](c4cc(Cl)cc(Cl)c4)C3(Cl)Cl)ccc2Cl)c(Cl)n1 (relative stereo) [F552, 2-Chloro-N-(2-chloro-6-methoxypyridin-3-yl)-5-(trans-2,2-dichloro-3-(3,5-dichlorophenyl)cyclopropane-1-carboxamido)benzamide]
- pest or weed control at 50 µg/cm2 [1]: 50 to 100%
- pest or weed control at 50 µg/cm2 [2]: 50 to 100%
- YFM rating [3]: A (80-100)

Compound: COc1ccc(NC(=O)c2cc(NC(=O)[C@H]3[C@H](c4ccc(F)c(Cl)c4)C3(Cl)Cl)ccc2Cl)c(Cl)n1 (relative stereo) [F553, 2-Chloro-N-(2-chloro-6-methoxypyridin-3-yl)-5-(trans-2,2-dichloro-3-(3-chloro-4-fluorophenyl)cyclopropane-1-carboxamido)benzamide]
- pest or weed control at 50 µg/cm2 [1]: 50 to 100%
- pest or weed control at 50 µg/cm2 [2]: 50 to 100%
- YFM rating [3]: A (80-100)

Compound: O=C(Nc1ccc(F)cc1F)c1cc(NC(=O)[C@H]2[C@H](c3cc(Cl)cc(C(F)F)c3)C2(Cl)Cl)ccc1Cl (relative stereo) [F558, 2-Chloro-5-(trans-2,2-dichloro-3-(3-chloro-5-(difluoromethyl)phenyl)cyclopropane-1-carboxamido)-N-(2,4-difluorophenyl)benzamide]
- pest or weed control at 50 µg/cm2 [1]: 50 to 100%
- pest or weed control at 50 µg/cm2 [2]: 50 to 100%
- YFM rating [3]: A (80-100)

Compound: O=C(Nc1ccc(F)cc1F)c1cc(NC(=O)[C@H]2[C@H](c3ccc(Cl)c(C(F)F)c3)C2(Cl)Cl)ccc1Cl (relative stereo) [F559, 2-Chloro-5-(trans-2,2-dichloro-3-(4-chloro-3-(difluoromethyl)phenyl)cyclopropane-1-carboxamido)-N-(2,4-difluorophenyl)benzamide]
- pest or weed control at 50 µg/cm2 [1]: 50 to 100%
- pest or weed control at 50 µg/cm2 [2]: 50 to 100%
- YFM rating [3]: A (80-100)

Compound: O=C(Nc1ccc(F)cc1F)c1cc(NC(=O)[C@H]2[C@H](c3cc(F)cc(C(F)F)c3)C2(Cl)Cl)ccc1Cl (relative stereo) [F560, 2-Chloro-5-(trans-2,2-dichloro-3-(3-(difluoromethyl)-5-fluorophenyl)cyclopropane-1-carboxamido)-N-(2,4-difluorophenyl)benzamide]
- pest or weed control at 50 µg/cm2 [1]: 50 to 100%
- pest or weed control at 50 µg/cm2 [2]: 50 to 100%
- YFM rating [3]: A (80-100)

Compound: O=C(Nc1ccc(F)cc1F)c1cc(NC(=O)[C@H]2[C@H](c3ccc(F)c(C(F)F)c3)C2(Cl)Cl)ccc1Cl (relative stereo) [F561, 2-Chloro-5-(trans-2,2-dichloro-3-(3-(difluoromethyl)-4-fluorophenyl)cyclopropane-1-carboxamido)-N-(2,4-difluorophenyl)benzamide]
- pest or weed control at 50 µg/cm2 [1]: 50 to 100%
- pest or weed control at 50 µg/cm2 [2]: 50 to 100%
- YFM rating [3]: A (80-100)

Compound: O=C(Nc1ccc(F)cc1F)c1cc(NC(=O)[C@H]2[C@H](c3ccc(C(F)F)c(Cl)c3)C2(Cl)Cl)ccc1Cl (relative stereo) [F562, 2-Chloro-5-(trans-2,2-dichloro-3-(3-chloro-4-(difluoromethyl)phenyl)cyclopropane-1-carboxamido)-N-(2,4-difluorophenyl)benzamide]
- pest or weed control at 50 µg/cm2 [1]: 50 to 100%
- pest or weed control at 50 µg/cm2 [2]: 50 to 100%
- YFM rating [3]: A (80-100)

Compound: O=C(Nc1ccc(F)cc1F)c1cc(NC(=O)[C@H]2[C@H](c3ccc(C(F)F)c(F)c3)C2(Cl)Cl)ccc1Cl (relative stereo) [F563, 2-Chloro-5-(trans-2,2-dichloro-3-(4-(difluoromethyl)-3-fluorophenyl)cyclopropane-1-carboxamido)-N-(2,4-difluorophenyl)benzamide]
- pest or weed control at 50 µg/cm2 [1]: 50 to 100%
- pest or weed control at 50 µg/cm2 [2]: 50 to 100%
- YFM rating [3]: A (80-100)

Compound: O=C(Nc1ccc(F)cc1F)c1cc(NC(=O)[C@H]2[C@H](c3cccc(C(F)F)c3)C2(Cl)Cl)ccc1Cl (relative stereo) [F564, 2-Chloro-5-(trans-2,2-dichloro-3-(3-(difluoromethyl)phenyl)cyclopropane-1-carboxamido)-N-(2,4-difluorophenyl)benzamide]
- pest or weed control at 50 µg/cm2 [1]: 50 to 100%
- pest or weed control at 50 µg/cm2 [2]: 50 to 100%
- YFM rating [3]: A (80-100)

Compound: O=C(Nc1ccc(F)cc1F)c1cc(NC(=O)[C@H]2[C@H](c3ccc(C(F)F)cc3)C2(Cl)Cl)ccc1Cl (relative stereo) [F565, 2-Chloro-5-(trans-2,2-dichloro-3-(4-(difluoromethyl)phenyl)cyclopropane-1-carboxamido)-N-(2,4-difluorophenyl)benzamide]
- pest or weed control at 50 µg/cm2 [1]: 50 to 100%
- pest or weed control at 50 µg/cm2 [2]: 50 to 100%
- YFM rating [3]: A (80-100)

Compound: C=Cc1c(F)cc([C@H]2[C@H](C(=O)Nc3ccc(Cl)c(C(=O)Nc4ccc(F)cc4F)c3)C2(Cl)Cl)cc1F (relative stereo) [F566, 2-Chloro-5-(trans-2,2-dichloro-3-(3,5-difluoro-4-vinylphenyl)cyclopropane-1-carboxamido)-N-(2,4-difluorophenyl)benzamide]
- pest or weed control at 50 µg/cm2 [1]: 50 to 100%
- pest or weed control at 50 µg/cm2 [2]: 50 to 100%
- YFM rating [3]: A (80-100)

Compound: Cc1cc(N)ccc1NC(=O)c1cc(NC(=O)[C@H]2[C@H](c3ccc(Cl)c(Cl)c3)C2(Cl)Cl)ccc1Cl (relative stereo) [F574, trans-N-(4-Amino-2-methylphenyl)-2-chloro-5-(2,2-dichloro-3-(3,4-dichlorophenyl)cyclopropane-1-carboxamido)benzamide]
- pest or weed control at 50 µg/cm2 [1]: 50 to 100%
- pest or weed control at 50 µg/cm2 [2]: 50 to 100%
- YFM rating [3]: A (80-100)
